# Source: patent US20220031625A1, “OPHTHALMIC COMPOSITIONS FOR DELIVERING MEIBUM-LIKE MATERIALS” (Altaire Pharmaceuticals, Inc., priority 2020, published 2022)
# Tested on: normal human keratinocytes/stratified squamous epithelium (EPIOCULAR model)
# Test: Ocular irritation test - MTT assay on EPIOCULAR model
# Format: cell-based
# Method: Another Ocular Irritation Study was done by exposing a microemulsion containing polyoxyl 35 castor oil in accordance with an embodiment of the present disclosure onto normal human keratinocytes/stratified squamous epithelium which is similar to that found in the cornea epithelium of the human eye (EPIOCULAR model), and then checking tissue viability with MTT assay for cytoxicity after incubation in comparison with a water control (Cyprotex). The study design and results are summarized below in Table 7.
smiles,measurement,setting,value
COC(C)=O [Methyl Acetate],Irritation Response (Irritant if ≤60%),EPIOCULAR model,Positive
same,Mean Tissue Viability,in comparison with a water control,31.1%
